Reference: US20130345159A1, “PURIFIED CARDIOGENIN ISOMER AND RELATED METHODS” (HUYA BIOSCIENCE INTERNATIONAL LLC, priority 2010, published 2013)
Entries after “also recorded” stand apart in the source; their conditions may differ.

Tests used:
[1] = test system: mesenchymal stem cells (MSCs); assay: cardiogenic morphological transition of cultured MSCs (phase contrast microscope); type: cell-based, rat; settings: for MSCs undergoing narrowing and becoming more refractive (cardiogenic morphological transition), D3 / MSCs undergoing narrowing and becoming more refractive (cardiogenic morphological transition), D7: 10 μg/ml; for MSCs undergoing narrowing and becoming more refractive (cardiogenic morphological transition), D3: treated for 3 days; for MSCs undergoing narrowing and becoming more refractive (cardiogenic morphological transition), D7: treated for 7 days; for activity in inducing cardiogenic differentiation of MSCs (in words): summary statements
Experimental: FIG. 14 presents photomicrographs that illustrate the activity of Car, HUYA-1 and HUYA-2, each 10 μg/ml, in inducing the cardiogenic morphological transition of mesenchymal stem cells (MSCs). D0, cultures of MSCs were set up before any treatment. The morphology of the MSCs was characterized by flat, irregular, low refracted and well-spread shapes (circles). D3, sample of the cultured MSCs were treated for 3 days with compounds as respectively labeled. […] D7, the cultured MSCs samples were treated for 7 days with compounds as respectively labeled. More MSCs (˜48%) in Car- and HUYA-1-treated cultures underwent narrowing and became more refractive (circles).
FIG. 15 provides a comparison, via photomicrographs, of HUYA-3 (10 μg/ml) with HUYA-4 (10 μg/ml) in inducing cardiogenic morphological transition of MSCs. Ctrl denotes the MSCs treated with vehicle (10% DMSO in equivalent volume). D0, the MSCs cultures were set before any treatment. The morphology of the MSCs was characterized by flat, irregular, low refracted and well-spread shapes (circles). D3, sample of the cultured MSCs were treated for 3 days with compounds as respectively labeled. […] D7, the cultured MSCs samples were treated for 7 days with compounds as respectively labeled. A similar amount of the MSCs (˜22%) in HUYA-4-treated cultures became narrowing and more refractive (ovals).
Testing was performed according to the procedures described in the following: The tibias/femur bones of rats were removed and the BM was flushed out of the bones with alpha IMDM culture medium. The BM was mixed well and centrifuged at 1,500 rpm for 5 minutes. The cell pellet was suspended with 3 ml culture medium, and the forming cell suspension was carefully put on 4 ml Ficoll solution, to minimize disturbance, and then was centrifuged at […] for 30 minutes. The second layer was transferred into a tube and washed twice with PBS to remove Ficoll (1,200 rpm for 5 minutes). The resulting cell pellet was resuspended in IMDM culture medium containing 10% heat-inactivated FBS (GIBCO) and 1% penicillin/streptomycin antibiotic mixture, and this was used for the tests. Non-adherent cells were discarded after 24 hours culturing. The adherent cells were cultured by changing medium every 3 days. The cells became nearly confluent after 14 days culture. To activate the cardiogenic morphology transition, the MSCs were cultured for 7 days in the presence of the HUYA-1, HUYA-2, HUYA-3, HUYA-4 or Car (10 μg/ml IMDM culture medium), respectively. The treating period-dependent morphological transition was evaluated, on a time-lapse basis, with a phase contrast microscope.

[2] = test system: mesenchymal stem cells (MSCs); assay: fluorescent immunocytochemistry for cardiogenic differentiation markers Mef2a and MHC beta in treated MSCs; type: cell-based, rat; settings: 10 μg/ml; for treated cells with Mef2a-positive staining (D3): treated for 3 days; for treated cells with MHC beta-positive signals (D7): treated for 7 days
Experimental: FIG. 16 depicts immunofluorescence staining for expression of cardiogenic differentiation markers, Mef2a (fluorescence in D3) and beta, MHC beta (fluorescence in D7). D3 and D7, the cultured MSCs samples were treated with the compounds, as labeled, for 3 and 7 days, respectively. Neg is the negative control of MSCs culture, with no use of the first antibody specific to Mef2a or MHC beta, showing negative signals of Mef2a (D3) and MHC (D7) staining Ctrl represents the cultured MSCs treated with the equivalent volume of 10% DMSO, with almost no positive Mef2a (D3) and MHC beta (D7) signals observed.
FIG. 17 depicts immunofluorescence staining for expressions of early cardiogenic differentiation marker, Mef2a (fluorescence in D3) and cardiac specific myosin heavy chain beta, MHC (fluorescence in D7). D3 and D7, the cultured MSCs samples were treated with the compounds, as labeled, for 3 and 7 days, respectively.
The method for the fluorescent-immunostaining is summarize briefly: The cultured cells were fixed with 4% paraformaldehyde in PBS for 15 minutes and permeabilized with 0.5% Triton X-100 for 15 minutes. Dilution of antibodies was as follows: rabbit polyclonal antibodies specific to rat MEF2a (1:500) and mouse monoclonal antibodies specific to MHC (1:500) (both antibodies from Abcam®). Secondary antibodies were goat anti-mouse and rabbit anti-IgG antibodies conjugated with fluorophore (FITC 495/528 and Cy5 650/667, products of Abcam®), respectively. The nuclei were stained with DAPI. Examined by fluorescent microscopy were the cardiogenic differentiation-associated morphological transition and specific marker protein expression of the cultured MSCs.

GFP-MSCs = assay: differentiation of GFP-MSCs into beating cardiac myocytes in co-culture with rat cardiac myocytes; type: cell-based, mice; settings: 10 μg/ml
Excerpt: FIG. 18 depicts HUYA-1-induced differentiation of GFP-MSCs into beating cardiac myocytes in co-culture system. This screenshot was taken from a video showing beating GFP-positive myocytes (enclosed areas) differentiated from the GFP-MSCs, which were co-cultured with rat cardiac myocytes and fibroblasts and then treated with HUYA-1. Since the culture contained non-GFP myocytes and fibroblasts and GFP-MSCs, any beating cells with GFP-positive signals that were identified must have differentiated from GFP-MSCs.
Bone marrow GFP-MSCs were isolated from the tibias/femur bones of GFP-transgenic mice. The GFP-MSCs were co-cultured with the cardiac myocytes isolated from neonatal SD rats in the presence of HUYA-1 (10 μg/ml IMDM culture medium) to mimic the cardiac micro-environment. The cultures were investigated daily, under a fluorescent microscope, to identify beating GFP-positive cells and to gauge the morphological transition of the cultured GFP-MSCs.

[3] = stress tests of the separated cardiogenin isomers; settings: storage in MTBE/IPA=50:50 or as solids at 40° C. for 24 hours
[4] = solubility in cell culture medium; type: physicochemical; settings: compared with HUYA-1
Excerpt: The DMSO concentration was increased from 5% to 10% to increase the solubility of HUYA-4.

[5] = listed as cardiogenin major isomer

stability under stress [3]	solubility in cell culture medium [4]	Compound	MSCs undergoing narrowing and becoming more refractive (cardiogenic morphological transition), D3 [1]	MSCs undergoing narrowing and becoming more refractive (cardiogenic morphological transition), D7 [1]	cultured MSCs induced into cardiogenic differentiation ([1]; cell culture, summary of FIGS. 14 and 15)	activity in inducing cardiogenic differentiation of MSCs (in words) [1]	activity in inducing cardiogenic differentiation of MSCs (in words) [1, 5]	activity in inducing cardiogenic differentiation of MSCs (in words) ([1]; listed as isolated cardiogenin major isomer)	treated cells with Mef2a-positive staining (D3) [2]	treated cells with MHC beta-positive signals (D7) [2] [%]	differentiation of MSCs into beating cardiac myocytes (GFP-MSCs)	differentiation of MSCs into beating cardiac myocytes (GFP-MSCs; [5])	activity in inducing cardiogenic differentiation of MSCs (in words) ([1]; listed as minor isomer)	activity in inducing cardiogenic differentiation of MSCs (in words) ([1]; listed as aglycone)
–	–	C[C@@H]1CC[C@]2(C(=O)OC3OC(CO)C(O)C(O)C3O)CC[C@]3(C)C(=CCC4[C@@]5(C)C[C@@H](O)[C@H](O)[C@@](C)(CO)C5CC[C@]43C)C2[C@]1(C)O (stereo partly shown) [HUYA-1, cardiogenin]	~31%	~48%	more than 20%	most active compound	substantially enhanced differentiation into cardiomyocytes; also recorded: active	biologically active	approximately 15%	20	induced cardiogenic differentiation of the GFP-MSCs to form beating cardiac myocytes; also recorded: can enhance the cardiogenic differentiation of MSCs into beating cardiac myocytes	beating cardiomyocytes differentiate from MSCs	–	–
The same picture was obtained	–	cardiogenin [HUYA-2]	did not show clear morphological changes	no significant morphological change	–	essentially inactive	–	–	almost no positive signals	~3	–	–	inactive	–
–	lower solubility	C[C@@H]1CC[C@]2(C(=O)O)CC[C@]3(C)C(=CCC4[C@@]5(C)C[C@@H](O)[C@H](O)[C@@](C)(CO)C5CC[C@]43C)C2[C@]1(C)O (stereo partly shown) [HUYA-4]	~20%	~22%	–	induced MSCs into cardiogenic differentiation	–	–	~6%	~8	beating cardiomyocytes differentiate from MSCs	–	–	substantially enhanced differentiation into cardiomyocytes
